# In patent US20220151229A1, “Synergistic Herbicidal Combinations” (Clariant International Ltd., priority 2019, published 2022):
# How the values were obtained:
# Format in all cases: in vivo
# Brassica napus - BRSNW = experiment: Greenhouse post-emergence herbicide trial, Brassica napus; conditions: 200 L/ha, Iodosulfuron-methyl-sodium 10 g Al/ha
# Text: (§1) Standard post emergence herbicide application procedures were used, as described below, to apply inventive compounds in combination with sulfonylurea herbicides.
# (§2) Seed of monocotyledonous and dicotyledonous harmful plants such as Brassica napus (BRSNW) Abutilon theophrasti (ABUTH), Alopecurus myosuroides (ALOMY), Amaranthus retroflexus (AMARE), Digitaria Sanguinalis (DIGSA), Echinochloa crus-galli (ECHCG), Erigeron canadensis (ERICA), Galium aparine (GALAP), Lolium perenne (LOLPE), Sectaria viridis (SETVI), Solanun nigrum (SOLNI), Viola arvensis (VIOAR) were sowed in 18 cm^2 pots. The plants were placed in a greenhouse under controlled environmental conditions, and sub-irrigation. About one week after emergence, seedlings were thinned as needed, including removal of any unhealthy or abnormal plants, to create a uniform series of test pots.
# (§3) The plants were maintained for the duration of the test in the greenhouse, where they received a mean of 70 μmol m-2 s-1 of light per day/night. Temperatures averages about 24° C. during the day and about 20° C. during the night. Plants were sub-irrigated throughout the test to ensure adequate soil moisture levels.
# (§4) Pots were assigned to different treatment in a randomized experimental design. A set of pots was left untreated as a reference against which effects of the treatments could later be evaluated. Application of tested formulations was made in a spray cabin model 01S-15E designed by CheckTec using the following parameters: • Two edge nozzle Lechler OC2, 200 L/ha, 3 bars. • Two edge nozzle Lechler OC3, 500 L/ha, 3 bars.
# (§5) The distance of the nozzle from the plants was between 50 to 53 cm. and the nozzle spacing was 50 cm.
# (§6) After treatment, pots were returned to the greenhouse until ready for evaluation. Evaluations were performed at different times after application (DAT: days after treatment), depending on the experiment.
# (§7) For evaluation of herbicidal effectiveness, all plants in the test were examined by a single technician, who recorded percent control, a visual measurement of the effectiveness of each treatment by comparison with untreated plants. […] The reported % control values represent the average for all replicates of each treatment.
# (§8) Iodosulfuron-methyl-sodium and Nicosulfuron were applied as dilutions of the active ingredient in water.
# Lolium perenne - LOLPE = experiment: Greenhouse post-emergence herbicide trial, Lolium perenne; conditions: 200 L/ha, Iodosulfuron-methyl-sodium 10 g Al/ha
# Text: as §1, §2, §3, §4, §5, §6, §7, §8
# Solanum nigrum - SOLNI = experiment: Greenhouse post-emergence herbicide trial, Solanum nigrum; conditions: Iodosulfuron-methyl-sodium 10 g Al/ha
# Text: as §1, §2, §3, §4, §5, §6, §7, §8
smiles,measurement,setting,value
"COC(=O)c1ccc(I)cc1S(=O)(=O)[N-]C(=O)Nc1nc(C)nc(OC)n1.[Na+] [Iodosulfuron-methyl-sodium, reference compound]",Effectiveness control,Brassica napus - BRSNW; 1 DAT,0.00%
same,Effectiveness control,Brassica napus - BRSNW; 2 DAT,0.00%
same,Effectiveness control,Brassica napus - BRSNW; 7 DAT,6.75%
same,Effectiveness control,Brassica napus - BRSNW; 10 DAT,8.50%
same,Effectiveness control,Brassica napus - BRSNW; 16 DAT,50.75%
same,Effectiveness control,Brassica napus - BRSNW; 22 DAT,99.00%
same,Effectiveness control,Brassica napus - BRSNW; 28 DAT,99.00%
same,Effectiveness control,Lolium perenne - LOLPE; 1 DAT,0.00%
same,Effectiveness control,Lolium perenne - LOLPE; 2 DAT,0.00%
same,Effectiveness control,Lolium perenne - LOLPE; 7 DAT,0.00%
same,Effectiveness control,Lolium perenne - LOLPE; 10 DAT,0.00%
same,Effectiveness control,Lolium perenne - LOLPE; 16 DAT,0.00%
same,Effectiveness control,Lolium perenne - LOLPE; 22 DAT,0.00%
same,Effectiveness control,Lolium perenne - LOLPE; 28 DAT,0.00%
same,Effectiveness control,"Solanum nigrum - SOLNI; 200 L/ha, 1 DAT",0.00%
same,Effectiveness control,"Solanum nigrum - SOLNI; 200 L/ha, 2 DAT",0.00%
same,Effectiveness control,"Solanum nigrum - SOLNI; 200 L/ha, 7 DAT",0.00%
same,Effectiveness control,"Solanum nigrum - SOLNI; 200 L/ha, 15 DAT",12.50%
same,Effectiveness control,"Solanum nigrum - SOLNI; 200 L/ha, 21 DAT",13.75%
same,Effectiveness control,"Solanum nigrum - SOLNI; 500 L/ha, 1 DAT",0.00%
same,Effectiveness control,"Solanum nigrum - SOLNI; 500 L/ha, 2 DAT",0.000%
same,Effectiveness control,"Solanum nigrum - SOLNI; 500 L/ha, 7 DAT",5.00%
same,Effectiveness control,"Solanum nigrum - SOLNI; 500 L/ha, 15 DAT",25.00%
same,Effectiveness control,"Solanum nigrum - SOLNI; 500 L/ha, 21 DAT",47.50%
